Reference: PubChem BioAssay (NCI)
Where “and” joins values, the source holds several entries; their conditions need not be identical. Equal entries are not always repeated.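 These data come from cells grown in 96-well plates and exposed to compound for 48 hours at five concentrations. Abbreviation: GI50, concentration required for 50% inhibition of growth. The concentration for full growth arrest is given as TGI.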

How the values were obtained:
Assay in all cases: DTP human tumour cell line panel, 48 h
[1] = system: EKVX NSCLC
[2] = system: HCT-116 colon
[3] = system: HOP-62 NSCLC
[4] = system: HT29 colon
[5] = system: MALME-3M melanoma
[6] = system: NCI-H226 lung
[7] = system: OVCAR-4 ovarian
[8] = system: SK-MEL-28 melanoma

Compound	TGI [1] [µM]	TGI [2] [µM]	TGI [3] [µM]	TGI [4] [µM]	TGI [5] [µM]	TGI [6] [µM]	TGI [7] [µM]	TGI [8] [µM]	GI50 [2] [µM]	GI50 [3] [µM]	GI50 [4] [µM]	GI50 [5]	GI50 [6] [µM]	GI50 [7] [µM]	GI50 [8] [µM]	GI50 [1] [µM]
Cc1ccc2c(c1C)-c1c(ccc(C)c1C)C(=O)C2=O	6.54	13.3	9.32	7.43	1.83	5.91	0.554	2.83	–	–	–	–	–	–	–	–
O=C1/C(=C/c2ccc([N+](=O)[O-])o2)Oc2ccc(Br)cc21	–	3.46	34.4	5.78	4.74	5.37	6.18	4.83	1.9	15	2.64	1.92 µM	2.12	2.37	2.19	–
COc1ccc(C(=O)COc2cccc(/C=C3\CSc4ccccc4C3=O)c2)cc1	14.8	2.78	7.6	3.18	5.58	14.9	9.87	3.71	1.35	2.84	1.55	2.2 µM	4.63	2.79	2.04	5.3
CCN(CCNc1ccc(C)c2sc3cc(Cl)ccc3c(=O)c12)CC(C)O (stereo not drawn)	7.3	3.02	2.86	3.17	2.77	4.72	24.9	3.4	1.66	1.52	1.65	1.36 µM	2.18	4.92	1.91	2.28
c1cc(CCN2CCCCC2)ccn1	> 100	> 100	> 100	> 100	> 100	> 100	> 100	> 100	–	–	–	–	–	–	–	–
CC(C)(O)C1CCC(Nc2ccc3ncc(-c4cccc(C(F)(F)F)c4)n3n2)CC1 (stereo not drawn)	> 100	18.5	11.8	12	13.6	27	12.5	3.91	3.54	2.37	2.23	2.25 µM	2.19	2.62	1.6	3.82
COc1cc(C(O)c2nc3ccccc3s2)cc(OC)c1OC (stereo not drawn)	> 100	> 100	> 100	> 100	> 100	> 100	> 100	> 100	45.4	43.8	> 100	21.4 µM	47.1	30.9	> 100	2.83
N#Cc1c(N)nc(N2CCOCC2)c(C#N)c1-c1ccc(Cl)cc1	> 100	> 100	> 100	> 100	–	> 100	> 100	> 100	65.1	> 100	43.3	–	50.4	29.8	70.9	22.5
NC(=NC1CCCCCCC1)c1ccc(N2CCN(c3ccc(C(N)=NC4CCCCCCC4)cc3)CC2)cc1	–	–	62.8	23.1	–	39.1	> 100	22.8	–	14.4	4.88	–	11.5	24.6	6.75	–
COc1ccc(C(=O)/C=C/c2c(C(F)(F)F)nc3sccn23)cc1OC	> 100	68.7	43	> 100	> 100	> 100	> 100	> 100	1.4	6	2.01	5.92 µM	6.95	4.08	8.48	4.43
Cn1ccc2c(c1=O)C(=O)c1nccc3c1c-2nc1ccccc13	3.16	2.87	2.81	–	4.09	26.4	2.6	3.05	1.35	1.45	–	2.2 µM	12.5	1.31	1.61	1.65
Cc1ccc(/C=C2/SC(Nc3nc(-c4nc(NC5=NC(=O)/C(=C\c6ccc(C)cc6)S5)sc4C)c(C)s3)=NC2=O)cc1	0.15	20.9	2.65	> 50	–	> 30.4	–	> 50	9.2	0.005	3.62	–	2.32	–	35.3	0.0339
O=C1Nc2ccccc2C1Cc1ccc([N+](=O)[O-])cc1 (stereo not drawn)	> 100	> 100	> 100	> 100	–	> 100	> 100	> 100	–	–	–	–	–	–	–	–
CCN1CCN(CC(=O)Nc2nc3ccc(NCc4ccc(Cl)cc4)cc3s2)CC1	> 100	11.7	–	4.61	3.2	–	90.6	3.31	3.21	–	2.02	1.67 µM	–	5.25	1.8	3.29
COc1ccc(-c2nnc(SCC(=O)Nc3ccc(/C(C)=N\O)cc3)n2-c2ccccc2)cc1OC	–	> 100	6.8	> 100	> 100	> 100	> 100	> 100	11.3	2.06	> 100	17.2 µM	7.28	> 100	> 100	–
Cc1nn(-c2ccccc2)c2c1CC(=O)Nc1ccccc1-2	–	–	> 100	–	> 100	> 100	> 100	> 100	0.322	0.384	0.0906	0.432 µM and 0.0872 µM	0.465	–	0.357	–
Cn1c(=O)c(Oc2ccc(F)cc2F)cc2cnc(NC(CO)CO)nc21	–	> 25	> 25	> 25	> 25	> 25	> 25	> 25	> 25	> 25	> 25	> 25 µM	> 25	> 25	> 25	–
CN(CC(=O)O)c1ccc(/C=C/c2ccnc3ccccc23)cc1	30.8	69.8	> 100	66.6	–	–	–	> 100	–	–	–	–	–	–	–	–
